Here are results for 31 compounds from US11192891B2, “Diazaspiro ROCK inhibitors” (BRISTOL-MYERS SQUIBB COMPANY, priority 2017, dated 2021).

Each structure is given as a SMILES string.

The target in the experiment is ROCK2 (Homo sapiens, UniProt O75116). As to the kind of experiment: ROCK kinase inhibition assay, FITC peptide substrate, LABCHIP 3000 readout. It counts as biochemical. Particulars: 5 μM ATP, 1.5 μM peptide substrate. The essentials:
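Tested across a concentration range, with percent inhibition of kinase activity derived per concentration. Peptide phosphorylation, initiated by adding the Rho kinase variant (final DMSO <2%), was quenched with EDTA and substrate/product resolved by mobility shift.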

Sequence of ROCK2 (O75116 whole entry, species assumed): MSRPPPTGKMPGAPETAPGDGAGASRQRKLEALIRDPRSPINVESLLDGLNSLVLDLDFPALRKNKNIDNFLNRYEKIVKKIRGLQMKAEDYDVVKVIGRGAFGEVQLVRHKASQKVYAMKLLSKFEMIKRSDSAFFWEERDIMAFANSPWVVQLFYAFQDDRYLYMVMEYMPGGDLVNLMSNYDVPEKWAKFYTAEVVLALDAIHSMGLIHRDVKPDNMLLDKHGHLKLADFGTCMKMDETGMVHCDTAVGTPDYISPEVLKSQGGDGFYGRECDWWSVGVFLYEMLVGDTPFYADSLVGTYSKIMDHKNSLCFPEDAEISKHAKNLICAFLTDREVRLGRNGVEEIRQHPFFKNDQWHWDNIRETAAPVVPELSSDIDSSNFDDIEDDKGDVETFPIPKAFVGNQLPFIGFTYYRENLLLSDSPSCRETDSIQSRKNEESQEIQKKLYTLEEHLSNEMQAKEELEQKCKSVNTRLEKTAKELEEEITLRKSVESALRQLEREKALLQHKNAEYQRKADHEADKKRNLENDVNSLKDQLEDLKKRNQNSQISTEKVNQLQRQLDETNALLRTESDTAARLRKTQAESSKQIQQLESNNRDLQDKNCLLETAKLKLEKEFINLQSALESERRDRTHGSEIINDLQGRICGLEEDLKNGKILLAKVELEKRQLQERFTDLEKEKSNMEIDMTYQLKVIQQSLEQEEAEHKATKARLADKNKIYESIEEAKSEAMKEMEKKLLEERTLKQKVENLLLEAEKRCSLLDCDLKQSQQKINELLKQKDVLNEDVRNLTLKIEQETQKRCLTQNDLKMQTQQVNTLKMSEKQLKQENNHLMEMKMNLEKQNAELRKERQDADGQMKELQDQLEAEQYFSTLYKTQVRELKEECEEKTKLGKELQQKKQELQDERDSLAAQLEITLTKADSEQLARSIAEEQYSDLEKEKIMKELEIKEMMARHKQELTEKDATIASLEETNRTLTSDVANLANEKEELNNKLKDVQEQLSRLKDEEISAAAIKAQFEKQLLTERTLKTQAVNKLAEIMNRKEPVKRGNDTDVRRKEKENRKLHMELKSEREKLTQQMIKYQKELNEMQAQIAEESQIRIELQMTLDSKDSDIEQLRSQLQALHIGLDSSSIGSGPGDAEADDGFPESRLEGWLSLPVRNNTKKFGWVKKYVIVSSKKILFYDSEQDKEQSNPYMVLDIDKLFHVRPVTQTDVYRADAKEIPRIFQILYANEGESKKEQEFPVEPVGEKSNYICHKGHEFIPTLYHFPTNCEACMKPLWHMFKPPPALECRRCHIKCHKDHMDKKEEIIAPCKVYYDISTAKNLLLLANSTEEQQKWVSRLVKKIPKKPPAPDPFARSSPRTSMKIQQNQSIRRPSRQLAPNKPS

One may read the IC50 as the concentration at which inhibition is half-maximal. Low values mean inhibition by little substance, high ones a need for much substance. As for `COc1cc(N2CCC3(CCN(C(=O)C4CCN(c5ncccn5)CC4)CC3)C2=O)ccc1-c1cn[nH]c1` [Example 140, 2-[3-methoxy-4-(1H-pyrazol-4-yl)phenyl]-8-[1-(pyrimidin-2-yl)piperidine-4-carbonyl]-2,8-diazaspiro[4.5]decan-1-one], the IC50 turned out to be 1.24 µM.
Take `COc1cc(N2CCC3(CCN(C(=O)c4cc(C)n(C)n4)CC3)C2=O)ccc1-c1cn[nH]c1` [Example 188, 8-(1,5-dimethyl-1H-pyrazole-3-carbonyl)-2-[3-methoxy-4-(1H-pyrazol-4-yl)phenyl]-2,8-diazaspiro[4.5]decan-1-one]: half-maximal inhibition (IC50) was put at 0.031 µM.
The value for `COc1cc(N2CCC3(CCN(C(=O)c4ccc(-c5nc(C)no5)cc4)CC3)C2=O)ccc1-c1cn[nH]c1` [Example 185, 2-[3-methoxy-4-(1H-pyrazol-4-yl)phenyl]-8-[4-(3-methyl-1,2,4-oxadiazol-5-yl)benzoyl]-2,8-diazaspiro[4.5]decan-1-one] was 0.037 µM; that for `COc1cc(N2CCC3(CCN(C(=O)c4ccc(N5CCN(C)CC5)cc4Cl)CC3)C2=O)ccc1-c1cn[nH]c1` [Example 27, 8-[2-chloro-4-(4-methylpiperazin-1-yl)benzoyl]-2-[3-methoxy-4-(1H-pyrazol-4-yl)phenyl]-2,8-diazaspiro[4.5]decan-1-one] was 0.0008 µM.
To `CN1CCN(c2ccc(C(=O)N3CCC4(CC3)CCN(c3ccc(-c5ccncc5F)cc3)C4=O)cc2)CC1` [Example 33, 2-[4-(3-fluoropyridin-4-yl)phenyl]-8-[4-(4-methylpiperazin-1-yl)benzoyl]-2,8-diazaspiro[4.5]decan-1-one] belongs 0.0013 µM.
To `COc1cc(N2CCC3(CCN(C(=O)c4ccc(N5CCN(Cc6ccc(C(F)(F)F)cc6)CC5)cc4)CC3)C2=O)ccc1-c1cn[nH]c1` [Example 234, 2-[3-methoxy-4-(1H-pyrazol-4-yl)phenyl]-8-[4-(4-{[4-(trifluoromethyl)phenyl]methyl}piperazin-1-yl)benzoyl]-2,8-diazaspiro[4.5]decan-1-one] belongs 0.0041 µM; to `COc1cc(N2CCC3(CCN(C(=O)c4ccc(N5CCCC5)cc4)CC3)C2=O)ccc1-c1cn[nH]c1` [Example 191], 0.004 µM.
`COc1ccc2c(c1)cc(C(=O)N1CCC3(CC1)CCN(c1ccc(-c4cn[nH]c4)c(OC)c1)C3=O)n2C` [Example 156, 8-(5-methoxy-1-methyl-1H-indole-2-carbonyl)-2-[3-methoxy-4-(1H-pyrazol-4-yl)phenyl]-2,8-diazaspiro[4.5]decan-1-one] showed a half-inhibitory concentration (IC50) of 0.054 µM.
To `COc1cc(CN2CCC(C(=O)N3CCC4(CC3)CCN(c3ccc(-c5cn[nH]c5)c(OC)c3)C4=O)CC2)ccc1F` [Example 151, 8-{1-[(4-fluoro-3-methoxyphenyl)methyl]piperidine-4-carbonyl}-2-[3-methoxy-4-(1H-pyrazol-4-yl)phenyl]-2,8-diazaspiro[4.5]decan-1-one] belongs 2.47 µM; to `COc1cc(N2CCC3(CCN(C(=O)c4ccc(N5CCCC5)cn4)CC3)C2=O)ccc1-c1cn[nH]c1` [Example 54, 2-[3-methoxy-4-(1H-pyrazol-4-yl)phenyl]-8-[5-(pyrrolidin-1-yl)pyridine-2-carbonyl]-2,8-diazaspiro[4.5]decan-1-one], 0.0021 µM; to `COc1cc(N2CCC3(CCN(C(=O)c4ccc(N5CCCC5=O)cc4)CC3)C2=O)ccc1-c1cn[nH]c1` [Example 128, 2-[3-methoxy-4-(1H-pyrazol-4-yl)phenyl]-8-[4-(2-oxopyrrolidin-1-yl)benzoyl]-2,8-diazaspiro[4.5]decan-1-one], 0.013 µM.
Compound `COc1ccc(C(=O)N2CCC3(CC2)CCN(c2ccc(-c4cn[nH]c4)cc2)C3=O)cc1` [Example 4, 8-(4-methoxybenzoyl)-2-[4-(1H-pyrazol-4-yl)phenyl]-2,8-diazaspiro[4.5]decan-1-one] gave an IC50 of 0.021 µM.
The value for `COc1cc(N2CCC3(CCN(C(=O)Nc4cccnc4)CC3)C2=O)ccc1-c1cn[nH]c1` [Example 214, 2-[3-methoxy-4-(1H-pyrazol-4-yl)phenyl]-1-oxo-N-(pyridin-3-yl)-2,8-diazaspiro[4.5]decane-8-carboxamide] was 1.48 µM; that for `COc1cc(N2CCC3(CCN(C(=O)c4cn5[nH]c(=O)cc5nc4C)CC3)C2=O)ccc1-c1cn[nH]c1` [Example 131, 2-[3-methoxy-4-(1H-pyrazol-4-yl)phenyl]-8-{5-methyl-2-oxo-1H,2H-pyrazolo[1,5-a]pyrimidine-6-carbonyl}-2,8-diazaspiro[4.5]decan-1-one] was 2.09 µM.
The compound `COc1cc(N2CCC3(CCN(C(=O)c4c(C)cc(C(N)=O)cc4C)CC3)C2=O)ccc1-c1cn[nH]c1` [Example 30, 4-{2-[3-methoxy-4-(1H-pyrazol-4-yl)phenyl]-1-oxo-2,8-diazaspiro[4.5]decane-8-carbonyl}-3,5-dimethylbenzamide] displayed an IC50 of 0.13 µM.
To `COc1ccc(C(=O)N2CCC3(CC2)CCN(c2ccc(-c4cn[nH]c4)c(OC)c2)C3=O)c(Br)c1` [Example 161, 8-(2-bromo-4-methoxybenzoyl)-2-[3-methoxy-4-(1H-pyrazol-4-yl)phenyl]-2,8-diazaspiro[4.5]decan-1-one] belongs 0.017 µM; to `COc1ccc(C(=O)N2CCC3(CC2)CCN(c2ccc(-c4cn[nH]c4)c(OC)c2)C3=O)c(OC)n1` [Example 80, 8-(2,6-dimethoxypyridine-3-carbonyl)-2-[3-methoxy-4-(1H-pyrazol-4-yl)phenyl]-2,8-diazaspiro[4.5]decan-1-one], 0.099 µM; to `COc1cc(N2CCC3(CCN(C(=O)C4CCC(C(N)=O)CC4)CC3)C2=O)ccc1-c1cn[nH]c1` (stereo not shown) [Example 148, 4-{2-[3-methoxy-4-(H-pyrazol-4-yl)phenyl]-1-oxo-2,8-diazaspiro[4.5]decane-8-carbonyl}cyclohexane-1-carboxamide], 2.17 µM.
To `COc1cc(N2CCC3(CCN(C(=O)c4ccc(C(F)(F)F)nc4)CC3)C2=O)ccc1-c1cn[nH]c1` [Example 87, 2-[3-methoxy-4-(1H-pyrazol-4-yl)phenyl]-8-[6-(trifluoromethyl)pyridine-3-carbonyl]-2,8-diazaspiro[4.5]decan-1-one] belongs 0.557 µM; to `COc1cc(N2CCC3(CCN(C(=O)c4ccc(N5CCCCS5(=O)=O)cc4)CC3)C2=O)ccc1-c1cn[nH]c1` [Example 192, 8-(4-(1,1-dioxido-1,2-thiazinan-2-yl)benzoyl)-2-(3-methoxy-4-(1H-pyrazol-4-yl)phenyl)-2,8-diazaspiro[4.5]decan-1-one], 0.0033 µM.
`COc1ccc(C(=O)N2CCC3(CC2)CCN(c2ccc(-c4cn[nH]c4)c(OC)n2)C3=O)cc1` [Example 39, 2-[6-methoxy-5-(1H-pyrazol-4-yl)pyridin-2-yl]-8-(4-methoxybenzoyl)-2,8-diazaspiro[4.5]decan-1-one] gave an IC50 of 0.004 µM.
The value for `COc1cc(N2CCC3(CCN(C(=O)c4ccc(Br)cc4)CC3)C2=O)ccc1-c1cn[nH]c1` [Example 195, 8-(4-bromobenzoyl)-2-[3-methoxy-4-(1H-pyrazol-4-yl)phenyl]-2,8-diazaspiro[4.5]decan-1-one] was 0.033 µM; that for `COc1ccc(C(=O)N2CCC3(CC2)CN(c2ccc(-c4cn[nH]c4)cc2)C3=O)cc1` [Example 40, 7-(4-methoxybenzoyl)-2-[4-(1H-pyrazol-4-yl)phenyl]-2,7-diazaspiro[3.5]nonan-1-one] was 0.132 µM; that for `COc1cc(N2CCC3(CCN(C(=O)c4cc5ncc(Br)cn5n4)CC3)C2=O)ccc1-c1cn[nH]c1` [Example 93, 8-{6-bromopyrazolo[1,5-a]pyrimidine-2-carbonyl}-2-[3-methoxy-4-(1H-pyrazol-4-yl)phenyl]-2,8-diazaspiro[4.5]decan-1-one] was 0.005 µM.
The value for `COc1cc(N2CCC3(CCN(C(=O)c4cc5ccccc5[nH]4)CC3)C2=O)ccc1-c1cn[nH]c1` [Example 68, 8-(1H-indole-2-carbonyl)-2-[3-methoxy-4-(1H-pyrazol-4-yl)phenyl]-2,8-diazaspiro[4.5]decan-1-one] was 0.467 µM.
To `COc1cc(N2CCC3(CCN(C(=O)c4ccc(NC(C)=O)cc4)CC3)C2=O)ccc1-c1cn[nH]c1` [Example 88, N-(4-{2-[3-methoxy-4-(1H-pyrazol-4-yl)phenyl]-1-oxo-2,8-diazaspiro[4.5]decane-8-carbonyl}phenyl)acetamide] belongs 0.073 µM; to `CN1CCN(c2ccc(C(=O)N3CCC4(CC3)CCN(c3cccc(-c5cn[nH]c5)c3)C4=O)cc2)CC1` [Example 48, 8-[4-(4-methylpiperazin-1-yl)benzoyl]-2-[3-(1H-pyrazol-4-yl)phenyl]-2,8-diazaspiro[4.5]decan-1-one], 1.1 µM.
As to `COc1cccc(S(=O)(=O)N2CCC3(CCN(c4ccc(-c5cn[nH]c5)c(OC)c4)C3=O)CC2)c1` [Example 207, 2-[3-methoxy-4-(1H-pyrazol-4-yl)phenyl]-8-(3-methoxybenzenesulfonyl)-2,8-diazaspiro[4.5]decan-1-one], the concentration for half-maximal inhibition (IC50) was 0.266 µM.
The value for `COc1cc(N2CCC3(CCN(C(=O)c4ccc(N5CCN(C(C)C)CC5)cc4)CC3)C2=O)ccc1-c1cn[nH]c1` [Example 233, 2-[3-methoxy-4-(1H-pyrazol-4-yl)phenyl]-8-{4-[4-(propan-2-yl)piperazin-1-yl]benzoyl}-2,8-diazaspiro[4.5]decan-1-one] was 0.0002 µM.
The value for `COc1ccc(C(=O)N2CCC3(CC2)CCN(c2ccc(-c4cn[nH]c4)c(OC)c2)C3=O)c(OC)c1` [Example 174, 8-(2,4-dimethoxybenzoyl)-2-[3-methoxy-4-(1H-pyrazol-4-yl)phenyl]-2,8-diazaspiro[4.5]decan-1-one] was 0.029 µM; that for `COc1cc(N2CCC3(CCN(C(=O)c4ccc(N5CCN(CCC(C)C)CC5)cc4)CC3)C2=O)ccc1-c1cn[nH]c1` [Example 238, 2-[3-methoxy-4-(1H-pyrazol-4-yl)phenyl]-8-{4-[4-(3-methylbutyl)piperazin-1-yl]benzoyl}-2,8-diazaspiro[4.5]decan-1-one] was 0.0016 µM.
